Laboratory results published in publication PMC10535741, “Styrylpyridinium Derivatives for Fluorescent Cell Imaging” (Pharmaceuticals, 2023).
Read-outs that look alike come from different tables or passages of the source.

Assays:
[1] = system: HT-1080 (human connective tissue fibrosarcoma); assay: MTT cytotoxicity assay, HT-1080; type: cell-based; details: for IC50: Homo sapiens, read-out: IC50 (µg/mL) HT-1080
Method: (§1) The evaluation of the in vitro cytotoxicity (IC50, half maximal inhibitory concentration) of the abovementioned compounds and their structural derivatives was assessed using the standard colorimetric 3-(4,5-dimethylthiazol-2-yl)-2,5-diphenyltetrazolium bromide (MTT) assay on two monolayer tumour cell lines, namely HT-1080 (human connective tissue fibrosarcoma) and MH-22A (mouse hepatocarcinoma). Additionally, the impact of the compound on non-cancerous “normal” cells—mouse fibroblasts (NIH3T3)—was estimated in order to measure the basal toxicity (LD50, median lethal dose). The obtained results were used for investigation of the structure–activity relationships and exploration of the effect of substituents on cellular response and toxicity. The estimated LD50 gives information regarding the compound properties and could potentially be used to select promising compounds by providing a starting dose for in vivo experiments.
The HT-1080 (human connective tissue fibrosarcoma, ATCC® CCL-121™), MH-22A (mouse hepatocarcinoma, ECACC Cat. No. 96121721), A-549 (human lung carcinoma, ATCC® CCL-185™), NIH3T3 (Swiss Albino mouse embryo fibroblast, ECACC Cat. No. 93061524), Hek293 (human embryonic kidney, ATCC® CRL-1573™), BHK-21 (Syrian hamster kidney, ATCC® CCL-10™), A-431 (human epidermoid carcinoma, ATCC® CRL-1555™), Saos-2 (human osteosarcoma, ATCC® HTB-85™), HeLa (human epitheloid cervix carcinoma, ATCC® CCL-2™), U937 (human myeloid leukaemia, ATCC® CRL-1593.2™), C6 (rat glioma, ATCC® CCL-107™), and B16-F10 (murine melanoma, ATCC® CRL-6475™) cell lines were obtained from the American Type Culture Collection (ATCC) and European Collection of Authenticated Cell Cultures (ECACC).
HT-1080, MH-22A, A-549, NIH3T3, BHK-21, A-431, HeLa, and B16-F10 cells were cultured in Dulbecco’s Modified Eagle’s Medium (DMEM) with 2 mM glutamine and 10% foetal bovine serum (FBS). Hek293 cells were cultured in Eagle’s Minimum Essential Medium with 10% foetal bovine serum. U937 cells were cultured in RPMI-1640 Medium with 2 mM glutamine and 10% foetal bovine serum. C6 cells were cultured in Ham’s F12 Medium with 2 mM glutamine and 10% foetal bovine serum. Saos-2 cells were cultured in McCoy’s 5a Medium with 2 mM glutamine and 10% foetal bovine serum. The cells were incubated at 37 °C with 5% CO2, 95% air, and complete humidity. Once ~90% confluence was reached, they were detached using 0.05% trypsin/EDTA and counted. The cells were plated at optimally determined densities for the logarithmic phase of growth. These cells were then suspended at a concentration of 4000 cells/well for HT-1080, MH-22A, A-549, NIH3T3, BHK-21, A-431, HeLa, B16-F10, Hek293, and Saos-2 cells and a concentration of 9000 cells/well for U937, C6, Hek293, and GM08402 cells and added onto a 96-well plate. For background absorption, some wells remained cell free, i.e., as a blank control. Cells were incubated for 72 h at 37 °C and 5% CO2 where they were exposed to a media containing serial dilutions of the investigated compounds (n = 3). Cell viability was measured using the 3-(4,5-dimethylthiazol-2-yl)-2,5-diphenyl-tetrazolium bromide (MTT) assay. In brief, after incubating with compounds, the culture medium was removed and fresh medium with 0.2 mg/mL MTT was added to each well of the plate. After incubation (3 h, 37 °C, 5% CO2), the medium with MTT solution was removed and replaced with 200 µL DMSO and 25 µL Sorenson’s glycine buffer (glycine 0.1 M, NaCl 0.1 M, pH: 10.5 with 0.1 M NaOH). The plate was shaken for 15 min at room temperature and the optical density (OD) of the wells was determined using a multichannel spectrophotometer (Thermo Scientific Multiskan EX) at 540 nm. The quantity of the control cells was taken in calculations as 100%. The IC50 value was calculated using the program Graph Pad Prism® 3.0.

[2] = Basal cytotoxicity, neutral red uptake (NRU) assay, with LD50 estimated from IC50; type: cell-based; details: mouse
Method: as §1
To assess basal cytotoxicity, the neutral red uptake (NRU) assay was conducted following a modified version of the standard protocol of Stokes’ [71], as validated by the NICEATM-ECVAM study. The NRU cytotoxicity assay determines the ability of viable cells to incorporate and bind a supravital dye, neutral red (NR).
NIH3T3 cells (9000 cells/well) were cultured in 96-well plates in DMEM medium supplemented with 5% FBS for 24 h. Subsequently, the cells were exposed to the test compounds over a range of seven concentrations (1000 µg/mL, 316 µg/mL, 100 µg/mL, 31 µg/mL, 10 µg/mL, 3.0 µg/mL, and 1.0 µg/mL) for 24 h. Untreated cells were used as a control. After the incubation period, the medium was removed from all plates and a solution of NR was added (250 µL, 0.05 mg/mL NR in DMEM 24 h pre-incubated at 37 °C and then filtered before use through a 0.22 µm syringe filter). The plates were incubated for 3 h, followed by three washes with phosphate-buffered saline (PBS). The cells were then treated with a mixture of ethanol (50%) and water (49%) supplemented with 1% acetic acid. The absorbance of NR was measured using a spectrophotometer multiplate reader (Infinite M1000; Tecan Austria GmbH, Salzburg, Austria) at 540 nm. The optical density (OD) was then calculated using the following formula: ODtreated cells×100/ODcontrol cells.
The IC50 values were calculated using the program Graph Pad Prism® 3.0.
In vitro test results were employed to estimate the starting dose for acute oral systemic toxicity tests in rodents (LD50). The LD50 value was calculated using the in vitro IC50 value and a following formula: logLD50(mM/kg)=0.439×logIC50(mM)+0.621
The value was then converted to mg/kg and the compounds classified into four toxicity categories. Category 1 (highly toxic): LD50 ≤ 5 mg/kg; Category 2 (moderately toxic): 5 < LD50 ≤ 50 mg/kg; Category 3 (slightly toxic): 50 < LD50 ≤ 300 mg/kg; Category 4 (practically non-toxic): 300 < LD50 ≤ 2000 mg/kg.

[3] = estimated from in vitro NRU IC50 (24 h), read-out: Basal cytotoxicity (NIH3T3) LD50 mM/kg
[4] = estimated from in vitro NRU IC50 (24 h) by log LD50 = 0.439 x log IC50 + 0.621, read-out: Basal Cytotoxicity (NIH3T3) LD50

SMILES | IC50 ([1]; HT-1080, 72 h treatment, MTT) [µg/mL] | LD50 at 24 h ([2]; NIH3T3 cells, estimated from in vitro NRU IC50 (24 h) by log LD50 = 0.439 x log IC50 + 0.621, read-out: Basal Cytotoxicity (NIH3T3) LD50) [mg/kg] | LD50 at 24 h [2, 3] [µmol/kg] | IC50 (µg/mL) HT-1080 ([1]; 72 h treatment, MTT) [µg/mL] | LD50 at 24 h [2, 4] [mg/kg] | times higher cytotoxicity towards HT-1080 than 6d ([1]; 6e versus 6d) [times] | IC50 ([1]; HT-1080, 72 h) [µg/mL]
CCCCCCCCCCCC[n+]1ccc(C=Cc2cc(OC)c(OC)c(OC)c2)cc1.[Br-] [Compound 6a, 4-(3,4,5-trimethoxystyryl)-N-dodecylpyridinium bromide] | 0.22 ± 0.06 | 249 ± 3 | 500 |  |  |  | 
CCCCCCCCCCCCCCCC[n+]1ccc(C=Cc2cc(OC)c(OC)c(OC)c2)cc1.[Br-] [Compound 6b] |  |  |  | 0.18 ± 0.02 |  |  | 
CCCCCCCCCCCCCCCC[n+]1ccc(C=CC=Cc2ccc(OC)cc2)cc1.[Br-] [Compound 6c, 1-hexadecyl-4-(4-(4-methoxyphenyl)buta-1,3-dien-1-yl)pyridin-1-ium bromide] | 0.2 ± 0.04 |  | 160 |  | 85 ± 7 |  | 
CCCCCCCCCCCC[n+]1ccc(C=Cc2cc3c4c(c2)CCCN4CCC3)cc1.[Br-] [Compound 6d, 1-dodecyl-4-(2-(2,3,6,7-tetrahydro-1H,5H-pyrido[3,2,1-ij]quinolin-9-yl)vinyl)pyridin-1-ium bromide] | 1.4 ± 0.3 |  | 300 |  | 169 ± 18 |  | 
CCCCCCCCCCCCCCCC[n+]1ccc(C=CC=Cc2cc3c4c(c2)CCCN4CCC3)cc1.[Br-] [Compound 6e, 1-hexadecyl-4-(4-(2,3,6,7-tetrahydro-1H,5H-pyrido[3,2,1-ij]quinolin-9-yl)buta-1,3-dien-1-yl)pyridin-1-ium bromide] | 1 ± 0.03 |  | 800 |  | 477 ± 11 | 1.4 | 
C(=C\c1cc2c3c(c1)CCCN3CCC2)/c1cc[n+](CCC[n+]2ccc(/C=C/c3cc4c5c(c3)CCCN5CCC4)cc2)cc1 [Compound 7a] |  |  |  |  | 1100 ± 20 |  | 2 ± 0.3
C(C=Cc1cc2c3c(c1)CCCN3CCC2)=Cc1cc[n+](CCC[n+]2ccc(C=CC=Cc3cc4c5c(c3)CCCN5CCC4)cc2)cc1.[Br-].[Br-] [Compound 7b, 1,1′-(propane-1,3-diyl)bis(4-(4-(2,3,6,7-tetrahydro-1H,5H-pyrido[3,2,1-ij]quinolin-9-yl)buta-1,3-dien-1-yl)pyridin-1-ium) dibromide] | 6 ± 0.2 |  |  |  | 857 ± 13 |  | 
